Publication PMC11243327, “Design, Synthesis, Antitumor, and Antiplasmodial Evaluation of New 7-Chloroquinoline–Benzimidazole Hybrids” (Molecules, 2024)
Where two headings read alike, the source gives them in different places.

Assays:
[1] = tested on: MRC-5 (human fetal lung fibroblasts); parameters: method as in PMID 36677600; settings: previously published result, ref [19]; cited from earlier work
[2] = tested on: HeLa (human cervical adenocarcinoma); settings: previously published result, cited from earlier work
[3] = tested on: CaCo-2 (human colorectal adenocarcinoma); settings: previously published result, cited from earlier work
[4] = tested on: THP-1 (acute monocytic leukemia); parameters: method as in PMID 36677600; settings: previously published result, ref [19]; cited from earlier work
HuT78 (T-cell lymphoma) [5] = tested on: HuT78 (T-cell lymphoma); parameters: method as in PMID 36677600; settings: previously published result, ref [19]; cited from earlier work
[6] = tested on: HL-60 (acute promyelocytic leukemia); parameters: method as in PMID 36677600; settings: previously published result, ref [19]; cited from earlier work
[7] = tested on: MRC-5 (human fetal lung fibroblasts); test: Antiproliferative MTT assay, MRC-5; assay type: cell-based; settings: Homo sapiens, MRC5, non-tumor cell line, 72 h, mean ± SD of three experiments
Procedure: (§1) The effect of the new synthesized compounds was tested on five human tumor cell lines, HeLa (human cervical adenocarcinoma; from ATCC), CaCo-2 (human colorectal adenocarcinoma), HL-60 (acute promyelocytic leukemia), HuT78 (T-cell lymphoma), and THP-1 (acute monocytic leukemia), as well as one non-tumor cell line, MRC-5 (human fetal lung fibroblasts). The MRC-5 cells were used between 24 and 26 passages. The cells were cultured in two different types of media: DMEM (Gibco Thermo Fisher Scinetific Inc., Runcorn, UK) and RPMI 1640 (Gibco, Thermo Fisher Scinetific Inc., UK). Both media were supplemented with 2 mM glutamine, fetal bovine serum (10%; heat inactivated), and antibiotics (100 U penicillin and 0.1 mg streptomycin). RPMI 1640 was additionally supplemented with 10 mM HEPES and 1 mM sodium pyruvate. Cells growing in a monolayer were cultured in DMEM, while cells growing in suspension were cultured in RPMI 1640. Cells were grown in humidified atmosphere under the conditions of 37 °C/5% CO2 gas in a CO2 incubator (IGO 150 CELLlife^TM, JOUAN, Thermo Fisher Scientific, Waltham, MA, USA).
(§2) Growth-inhibitory activity was assessed using a slightly modified procedure based on the National Cancer Institute’s protocol. Briefly, cells were seeded in 96-well microtiter plates and incubated for 24 h. They were then treated with 10^−7 to 10^−4 M concentrations of the tested compounds for an additional 72 h. After the treatment period, the effects of the tested compounds on the growth rate of the cells were examined using the MTT assay. Absorbance was measured at 595 nm using a microplate reader. The IC50 value, which represents a 50% inhibition of cell growth, and QC calculation were performed using the GraphPadPrism software (La Jolla, USA), v. 5.03. and Excel software, Office 365. The selectivity index was calculated according to the following formula: SI=IC50 value of normal cell line/IC50 value of cancer cell line
(§3) The effect of each concentration was analyzed by plotting the logarithm of the concentration of the evaluated compound against the corresponding percentage inhibition value using least squares.

[8] = tested on: THP-1 (acute monocytic leukemia); test: Antiproliferative MTT assay, THP-1; assay type: cell-based, human; settings: Homo sapiens, THP-1, 72 h, mean ± SD of three experiments
Procedure: as §1, §2, §3

HuT78 (T-cell lymphoma) [9] = test: Antiproliferative MTT assay, Hut78; assay type: cell-based, human; settings: Homo sapiens, HuT78, 72 h, mean ± SD of three experiments
Procedure: as §1, §2, §3

[10] = tested on: HL-60 (acute promyelocytic leukemia); test: Antiproliferative MTT assay, HL-60; assay type: cell-based, human; settings: Homo sapiens, HL-60, 72 h, mean ± SD of three experiments
Procedure: as §1, §2, §3

[11] = tested on: P. falciparum 3D7 (CQ-susceptible), erythrocytic stage; test: Antiplasmodial HRP2 assay, Pf3D7; assay type: cell-based, Plasmodium falciparum; settings: Plasmodium falciparum, 3D7, 72 h; chloroquine-sensitive strain, three days incubation, HRP2-ELISA, mean ± SD, n ≥ 2; read-out: IC50 Pf3D7
Procedure: (§4) Method used to evaluate the antiplasmodial activity of quinoline–benzimidazole hybrids against two P. falciparum strains, chloroquine-sensitive (Pf3D7) and chloroquine-resistant (PfDd2), was previously described. […] Chloroquine was used as a positive control.
(§5) In brief, 96-well plates were pre-coated with the tested compounds at 1:3 dilution before ring-stage parasites were added to the complete culture medium at a hematocrit of 1.5% and a parasitemia of 0.05%. […] All compounds were analyzed in duplicate in at least two independent experiments. The IC50 was determined by nonlinear regression analysis of the logarithmic concentration-response curves using the drc package v3.0-1 of R v4.1.0 [56].

[12] = tested on: P. falciparum Dd2 (multiresistant), erythrocytic stage; test: Antiplasmodial HRP2 assay, PfDd2; assay type: cell-based, Plasmodium falciparum; settings: Plasmodium falciparum, DD2, 72 h; chloroquine-resistant strain, three days incubation, HRP2-ELISA, mean ± SD, n ≥ 2; read-out: IC50 PfDd2
Procedure: as §4, §5

[13] = tested on: HeLa (human cervical adenocarcinoma); test: Antiproliferative MTT assay, HeLa; assay type: cell-based; settings: Homo sapiens, HeLa, 72 h, mean ± SD of three experiments
Procedure: as §1, §2, §3

[14] = tested on: CaCo-2 (human colorectal adenocarcinoma); test: Antiproliferative MTT assay, CaCo-2; assay type: cell-based; settings: Homo sapiens, Caco-2, 72 h, mean ± SD of three experiments
Procedure: as §1, §2, §3

[15] = Antiproliferative MTT assay, whole panel of cell lines; assay type: cell-based; settings: human, range over the cell lines tested, read-out: IC50 (cytotoxicity) across non-tumor and tumor cell lines
Procedure: as §1, with “Cells growing in a monolayer were cultured in DMEM, while cells growing in suspension were cultured in RPMI 1640. Cells were grown in humidified atmosphere under the conditions of 37 °C/5% CO2 gas in a CO2 incubator (IGO 150 CELLlife^TM, JOUAN, Thermo Fisher Scientific, Waltham, MA, USA).” left out
Growth-inhibitory activity was assessed using a slightly modified procedure based on the National Cancer Institute’s protocol. […] Absorbance was measured at 595 nm using a microplate reader. […] The selectivity index was calculated according to the following formula: SI=IC50 value of normal cell line/IC50 value of cancer cell line
as §3

| SMILES | IC50 [1] | IC50 ([2]; ref [19]) | IC50 ([3]; ref [19]) | IC50 [4] | IC50 (HuT78 (T-cell lymphoma) [5]) | IC50 [6] | IC50 [7] | IC50 [8] | IC50 (HuT78 (T-cell lymphoma) [9]) | IC50 [10] | IC50 [11] | IC50 [12] | IC50 ([2]; ref [18]) | IC50 ([3]; ref [18]) | IC50 [13] | IC50 [14] | melting point | IC50 at 72 h [15] |
| --- | --- | --- | --- | --- | --- | --- | --- | --- | --- | --- | --- | --- | --- | --- | --- | --- | --- | --- |
| O=c1[nH]cc(F)c(=O)[nH]1 [Compound 5-FU, 5-fluorouracil] | 54100 nM | 8200 nM | 5900 nM | > 100000 nM | > 100000 nM | 76400 nM | – | – | – | – | – | – | – | – | – | – | – | – |
| N=C(NC1CCCC1)c1ccc2nc(-c3ccc(OCCNc4ccnc5cc(Cl)ccc45)cc3)[nH]c2c1 [Compound 10d] | – | – | – | – | – | – | 99200 ± 8300 nM | > 100000 nM | 92000 ± 6100 nM | > 100000 nM | 58.5 ± 5.9 nM | 36.9 ± 17.7 nM | > 100000 nM | > 100000 nM | – | – | – | – |
| COc1cc(-c2nc3ccc(Cl)cc3[nH]2)ccc1OCCNc1ccnc2cc(Cl)ccc12 [Compound 12b, 7-chloro-N-{[4-(5(6)-chloro-benzo[d]imidazole-2-yl)-2-methoxyphenoxy]ethyl}quinolin-4-amine] | – | – | – | – | – | – | 3000 ± 1600 nM | 6100 ± 6900 nM | 3700 ± 5200 nM | 3300 ± 1100 nM | 11.1 ± 0.3 nM | 21.5 ± 2.5 nM | – | – | 5600 ± 1300 nM | 4700 ± 4000 nM | 222 °C | – |
| COc1ccc2nc(-c3ccc(OCCNc4ccnc5cc(Cl)ccc45)c(OC)c3)[nH]c2c1 [Compound 12c, 7-chloro-N-{[4-(5(6)-methoxy-benzo[d]imidazole-2-yl)-2-methoxyphenoxy]ethyl}quinolin-4-amine] | – | – | – | – | – | – | 1100 ± 800 nM | 3100 ± 800 nM | 2400 ± 1100 nM | 200 nM | 9.7 ± 0.2 nM | 15.4 ± 2 nM | – | – | 2700 ± 200 nM | 2100 ± 300 nM | 218 to 219 °C | – |
| Clc1ccc2c(NCCCOc3ccc(-c4nc5ccccc5[nH]4)cc3)ccnc2c1 [Compound 13a] | – | – | – | – | – | – | 300 ± 200 nM | 3000 ± 800 nM | 1600 ± 800 nM | 400 ± 200 nM | 2.6 ± 0.7 nM | 4.8 ± 0.3 nM | – | – | 3000 ± 2300 nM | 1100 ± 400 nM | 200 to 202 °C | – |
| Clc1ccc2c(NCCCOc3ccc(-c4nc5ccc(Cl)cc5[nH]4)cc3)ccnc2c1 [Compound 13b] | – | – | – | – | – | – | 400 ± 100 nM | 2100 ± 700 nM | 300 ± 200 nM | 200 ± 100 nM | 2.4 ± 1.4 nM | 3.9 ± 1.1 nM | – | – | 600 ± 100 nM | 1600 ± 400 nM | 198 to 200 °C | – |
| COc1ccc2nc(-c3ccc(OCCCNc4ccnc5cc(Cl)ccc45)cc3)[nH]c2c1 [Compound 13c] | – | – | – | – | – | – | 2700 ± 500 nM | 2600 nM | 1100 ± 500 nM | 300 ± 200 nM | 12.8 ± 0.5 nM | 11.9 ± 1.6 nM | – | – | 200 ± 200 nM | 1000 ± 500 nM | 212 °C (dec.) | – |
| Clc1ccc2c(NCCCOc3ccc(-c4nc5ccc(Cl)cc5[nH]4)cc3Br)ccnc2c1 [Compound 14b, N-{[2-bromo-4-(5(6)-chloro-1H-benzo[d]imidazole-2-yl)phenoxy]propyl}-7-chloroquinolin-4-amine] | – | – | – | – | – | – | 2000 ± 1800 nM | 6800 ± 3500 nM | 900 ± 600 nM | 400 ± 100 nM | 5 ± 1.4 nM | 14.2 ± 1.2 nM | – | – | 1500 ± 1000 nM | 1500 ± 1100 nM | 219 to 221 °C | – |
| COc1ccc2nc(-c3ccc(OCCCNc4ccnc5cc(Cl)ccc45)c(Br)c3)[nH]c2c1 [Compound 14c, N-{[2-bromo-4-(5(6)-methoxy-1H-benzo[d]imidazole-2-yl)phenoxy]propyl}-7-chloroquinolin-4-amine] | – | – | – | – | – | – | 400 ± 100 nM | 5200 ± 1800 nM | 600 ± 100 nM | 300 ± 100 nM | 11.4 ± 4 nM | 11.8 ± 3.2 nM | – | – | 800 ± 700 nM | 1600 ± 900 nM | 230 °C (dec.) | – |
| COc1cc(-c2nc3ccccc3[nH]2)ccc1OCCCNc1ccnc2cc(Cl)ccc12 [Compound 15a, N-{[4-(1H-benzo[d]imidazole-2-yl)-2-methoxyphenoxy]propyl}-7-chloroquinolin-4-amine] | – | – | – | – | – | – | 300 ± 100 nM | 2200 ± 500 nM | 1500 ± 300 nM | 400 ± 100 nM | 4.4 ± 0.3 nM | 11.2 ± 0.5 nM | – | – | 400 ± 100 nM | 800 ± 100 nM | 179 to 181 °C | – |
| COc1cc(-c2nc3ccc(Cl)cc3[nH]2)ccc1OCCCNc1ccnc2cc(Cl)ccc12 [Compound 15b, 7-chloro-N-{[4-(5(6)-chloro-benzo[d]imidazole-2-yl)-2-methoxyphenoxy]propyl}quinolin-4-amine] | – | – | – | – | – | – | 300 nM | 2500 ± 300 nM | 700 ± 400 nM | 200 ± 100 nM | 4.7 ± 1.5 nM | 5.2 ± 0.5 nM | – | – | 300 ± 100 nM | 1100 ± 600 nM | 190 to 192 °C | – |
| COc1ccc2nc(-c3ccc(OCCCNc4ccnc5cc(Cl)ccc45)c(OC)c3)[nH]c2c1 [Compound 15c, 7-chloro-N-{[4-(5(6)-methoxy-benzo[d]imidazole-2-yl)-2-methoxyphenoxy]propyl}quinolin-4-amine] | – | – | – | – | – | – | 700 ± 600 nM | 2200 ± 300 nM | 700 ± 600 nM | 200 nM | 6.9 ± 1.7 nM | 16.5 ± 5.7 nM | – | – | 1200 ± 600 nM | 1500 ± 300 nM | 220 °C (dec.) | – |
| COc1cc(-c2nc3ccc(C(=N)NC4CCCC4)cc3[nH]2)ccc1OCCCNc1ccnc2cc(Cl)ccc12 [Compound 15d] | – | – | – | – | – | – | 95200 ± 9700 nM | 29600 ± 300 nM | 12800 ± 5500 nM | 19500 ± 1100 nM | 28.7 ± 9.4 nM | 22.9 ± 4.3 nM | – | – | > 100000 nM | > 100000 nM | – | 12800 to 100000 nM |
